From publication PMC6723440 (Toxins, 2019)
Read-outs that look alike come from different tables or passages of the source.

Columns and labels:
[1] = human, pH 7.4
[2] = human; for percentage of metabolized parent toxin in phase I reactions: microsomes, 1 h
[3] = human, pH 7.4; remark: listed apart in the source
[4] = in vivo; cited from earlier work
[5] = human; cited from earlier work

## C[C@H]1CCCC(=O)CCC/C=C/c2cc(O)cc(O)c2C(=O)O1 [ZEN, zearalenone]
[1]
  LC-MS Library: metabolites generated: Phase I metabolites: (-(H2) +(O))-ZEN, (+(O))-ZEN, (+(H2)+ (O))-ZEN Glucuronides: Gluc-16-ZEN, Gluc-14-ZEN, Gluc-(+O)-ZEN, 2xGluc-ZEN
[2]; pH 7.4
  percentage of metabolized parent toxin in phase I reactions: 27%
  Number of Metabolites (n): Desaturation oxidation, −(H2) +(O2): 0
  Number of Metabolites (n): Desaturation, oxidation, −(H2) +(O): 1
  Number of Metabolites (n): Desaturation, oxidation, −(H4) +(O): 0
  Number of Metabolites (n): Oxidation, +(O2): 0
  Number of Metabolites (n): Oxidation, −(H4) +(O2): 0
  Number of Metabolites (n): Reduction, oxidation, +(H2) +(O): 2
  share of Oxidation +(O) metabolites in ∑ n: 9(75%)
  ∑ n, total number of oxidized metabolites: 12
[3]
  Total Number of Glucuronides: 10
  converted into glucoronides: 99%
  glucuronides of oxidized metabolites and double glucuronides (minor products): 8%
  glucuronides of parent toxins at position C-14: 86%
  share of species, Figure 7 pie: 1%
  sum of parent glucuronides: 91%

## CC1=C[C@H]2O[C@@H]3[C@H](O)[C@@H](O)[C@](C)([C@@]2(CO)[C@H](O)C1=O)[C@]31CO1 [NIV, nivalenol]
[2]; pH 7.4
  converted into DNIV: 5%
[3]
  glucuronidation: < 1%

## CC1=C[C@H]2O[C@@H]3[C@H](O)C[C@](C)([C@@]2(CO)[C@H](O)C1=O)[C@]31CO1 [DON, deoxynivalenol]
[1]
  LC-MS Library: metabolites generated: Phase I metabolites: NIV, DOM-1 and its two isomers, Glucuronides: 15-Gluc-DON, 3-Gluc-DON
[4]
  predominant species in urine: 27%
  total urinary DON present as free DON: 27.4%
  total urinary deoxynivalenol (DON) composed of its glucuronides (15-Gluc-DON and 3-Gluc-DON): approximately 72.6%
[2]; pH 7.4
  converted into DNIV: less than 1%

## C[C@H]1CCC[C@H](O)CCC/C=C/c2cc(O)cc(O)c2C(=O)O1 [α-ZOL, 7-α-hydroxy-zearalenol]
[2]
  percentage of metabolized parent toxin in phase I reactions: 70%

## CC(=O)OC[C@]12[C@H](O)C(=O)C(C)=C[C@H]1O[C@@H]1[C@H](O)C[C@@]2(C)[C@]12CO2 [15-AcDON, 15-acetyldeoxynivalenol]
[1]
  LC-MS Library: metabolites generated: Phase I metabolites: DON Glucuronides: Gluc-15-AcDON
[2]; pH 7.4
  converted into DON: 1%

## C[C@H]1CCCC(=O)CCCCCc2cc(O)cc(O)c2C(=O)O1 [ZAN, zearalanone]
[1]
  LC-MS Library: metabolites generated: Phase I metabolites: (-(H2) +(O))-ZAN, (+(O))-ZAN, (+(H2)+ (O))-ZAN, (+(O2))-ZAN, (-(H2) +(O2))-ZAN Glucuronides: Gluc-16-ZAN, Gluc-14-ZAN, Gluc-(+O)- ZAN, 2xGluc- ZAN, Gluc-(+(H2)+(O))-ZAN, 2 × Gluc-(+O)-ZAN, 2 × Gluc-(+(H2)+(O))-ZAN
[2]; pH 7.4
  percentage of metabolized parent toxin in phase I reactions: 66%
  Number of Metabolites (n): Desaturation oxidation, −(H2) +(O2): 2
  Number of Metabolites (n): Desaturation, oxidation, −(H2) +(O): 1
  Number of Metabolites (n): Desaturation, oxidation, −(H4) +(O): 0
  Number of Metabolites (n): Oxidation +(O): 5(23%)
  Number of Metabolites (n): Oxidation, +(O2): 6(27%)
  Number of Metabolites (n): Oxidation, −(H4) +(O2): 0
  share of Oxidation +(O) metabolites in ∑ n: 5(23%)
  share of Oxidation, +(O2) metabolites in ∑ n: 6(27%)
  share of Reduction, oxidation, +(H2) +(O) metabolites in ∑ n: 8(36%)
  ∑ n, total number of oxidized metabolites: 22
[3]
  Total Number of Glucuronides: 24
  converted into glucoronides: 93%
  glucuronides of oxidized metabolites and double glucuronides (minor products): 19%
  glucuronides of parent toxins at position C-14: 73%
  share of species, Figure 7 pie: 7%
  sum of parent glucuronides: 74%

## CC(=O)OCC12CC(OC(=O)CC(C)C)C(C)=CC1OC1C(OC3OC(C(=O)O)C(O)C(O)C3O)C(OC(C)=O)C2(C)C12CO2 (stereo not drawn) [T-2 glucuronide]
[3]
  share of glucuronide form: 8%

## CC(=O)O[C@@H]1C[C@]2(C)[C@@]3(CO)[C@H](O)C(=O)C(C)=C[C@H]3O[C@H]1[C@@]21CO1 [3-AcDON, 3-acetyldeoxynivalenol]
[1]
  LC-MS Library: metabolites generated: Phase I metabolites: DON Glucuronides: Gluc-3-AcDON
[5]
  metabolized to DON: 78%
[2]; pH 7.4
  converted into DON: 50%

## C[C@H]1CCC[C@@H](O)CCCCCc2cc(O)cc(O)c2C(=O)O1 [β-ZAL, 7-β-hydroxy-zearalanol]
[2]
  percentage of metabolized parent toxin in phase I reactions: 23%

## C[C@H]1CCC[C@H](O)CCCCCc2cc(O)cc(O)c2C(=O)O1 [α-ZAL, 7-α-hydroxy-zearalanol]
[2]
  percentage of metabolized parent toxin in phase I reactions: 29%

## CC(=O)OC[C@]12C[C@H](OC(=O)CC(C)C)C(C)=C[C@H]1O[C@@H]1[C@H](O)[C@@H](O)[C@@]2(C)[C@]12CO2 [HT-2, HT-2 toxin]
[1]
  LC-MS Library: metabolites generated: Phase I metabolites: 4-de-Ac-NEO and its isomer, 3′-OH-HT-2, 4′-OH-HT-2 and its isomer Three OH-T-2 metabolites at 7 or 10 or 16-OH-HT-2 Two unknown metabolites Glucuronides: Gluc-3-HT-2
